Measured values as given in patent US9248131B2, “Aquaporin modulators and methods of using them for the treatment of edema and fluid imbalance” (THE ARIZONA BOARD OF REGENTS ON BEHALF OF THE UNIVERSITY OF …, priority 2006, dated 2016).

Legend:
AQP4 = target: T1, AQP4 (Homo sapiens, UniProt P55087); assay: Oocyte swelling assay: water permeability (Pf) of AQP4-expressing oocytes by videomicroscopy, block or % stimulation; assay type: cell-based
T1 construct: expressed in transfected cells; host or cells: Xenopus oocytes
Source text: A method for screening compounds for their ability to modulate aquaporin activity based on a water permeability assay in Xenopus oocytes expressing aquaporins which is used to identify, assess, and characterize compounds that either block or stimulate the aquaporin channels including AQP1, AQP4 and AQP9 channels.
Selection rationale and methodology. The ability of compounds, analogs and/or agents to block an aquaporin channel was quantified by videomicroscopic analyses of cross-sectional area of AQP-expressing oocytes as a function of time in a defined osmotic gradient, allowing the calculation of the water permeability factor (Pf), statistical evaluation of significant differences in the rate of water entry, and definition of dose response curves with IC50 values (concentration required for half-maximal block).
This compound evaluation method has been utilized with AQP1,-4,-5, and -9 channels. Observations of channel stimulation were made using the same assay method, however, the results were reported as % stimulation over control at a given concentration. […] TEA is known as a blocker of K^+ channel subtypes and nicotinic acetylcholine receptors. TEA sensitivity of AQP1 was removed by site-directed mutagenesis of tyrosine 186 to phenylalanine (Y186F) in the outer vestibule of the water pore, and confirmed that the inhibitory action of TEA is not due to nonspecific effects on endogenous channels (Brooks et al., 2000).

[1] = system: cerebral ischemia (MCAO model); assay: Middle cerebral artery occlusion (MCAO) model, 1 h ischemia and 24 h reperfusion; assay type: in vivo, mice; details: 60 mg/kg intravenous single bolus 10 min before reperfusion, 1 h ischemia
Source text: Anatomical measures of infarct size, brain volume, neurological assessments, and mortality rate can be used to assess the consequences of middle cerebral artery occlusion (MCAO) model in mice. The rodent MCAO model, an accepted model of cerebral ischemia and reperfusion (Clark et al., 1997), uses a silicone-coated filament to promote cerebral artery occlusion (Migliati et al., 2001). An innovative method to measure effective occlusion in real time is by laser Doppler monitoring of blood flow rate
Typical procedure for MCAO model in mice: Wild-type C57BL/6J male mice at 9-11 weeks old are anesthetized, and cerebral blood flow is recorded as baseline using laser Doppler. The monofilament is placed in the internal common carotid and advanced to the ostia of the middle cerebral artery. […] After 24 h, animals are evaluated for neurological, behavioral, and general deficits, and then sacrificed for anatomical analysis of the infarcted and contralateral control hemispheres. […]
FIG. 6 illustrates cerebral edema and infarct size in mice subjected to one hour of ischemia and 24 hours of reperfusion, with and without bumetanide (60 mg/kg) administered intravenously in a single bolus at 10 min before reperfusion. Stained with 2% TTC, the infarcted area is white; areas are analyzed using morphometric software by researchers blinded to the treatment group.

[2] = target: T2, native AQP4 in primary cultures of astroglia (Rattus norvegicus, UniProt P47863); assay: Astroglial swelling in primary hippocampal cultures after 50% hypotonic saline; assay type: cell-based; details: 100 μM extracellular, 15 min preincubation
T2 construct: endogenous in cells; host or cells: rat primary hippocampal astroglial cultures
Protocol: The role of native AQP4 as a target of block by bumetanide was tested in primary cultures of astroglia (FIG. 4). We compared the swelling responses of rat astroglial cells in primary hippocampal cultures after 15 min preincubation with or without drug. Swelling was induced by rapid perfusion of the culture plate with 50% hypotonic saline, either with or without extracellular bumetanide (100 μM) to match the preincubation condition. Glial cells were identified by morphological comparison with cells positive for a glial-specific marker (GFAP). Time-lapse images were taken at 15 second intervals before and during hypotonic challenge. The response was determined by the change in soma area as a function of time, as visualized by time-lapse digital imaging (Olympus MagnaFire™ camera and image acquisition software) using an inverted phase contrast microscope (Nikon); data were analyzed by Scion Image (NIH) software. Each culture was used for only one swelling trial. […]
FIG. 3 illustrates the protective effect of bumetanide on astroglial swelling in primary hippocampal cultures (14-15 days in vitro) after exposure to 50% hypotonic saline at time zero. Plot (left): Cell area visualized by phase contrast microscopy, standardized to the initial volume quantified by Scion Image (NIH) software. […]

T1 sequence (P55087 whole entry, species assumed): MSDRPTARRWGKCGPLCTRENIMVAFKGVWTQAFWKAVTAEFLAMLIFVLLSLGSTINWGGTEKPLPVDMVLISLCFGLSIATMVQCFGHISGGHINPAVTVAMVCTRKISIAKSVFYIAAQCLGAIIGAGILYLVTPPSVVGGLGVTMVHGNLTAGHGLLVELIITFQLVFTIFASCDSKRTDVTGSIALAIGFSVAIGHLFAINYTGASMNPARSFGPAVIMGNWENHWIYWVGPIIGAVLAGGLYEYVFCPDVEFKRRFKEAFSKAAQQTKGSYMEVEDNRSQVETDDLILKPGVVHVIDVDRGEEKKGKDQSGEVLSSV
T2 sequence (P47863 whole entry): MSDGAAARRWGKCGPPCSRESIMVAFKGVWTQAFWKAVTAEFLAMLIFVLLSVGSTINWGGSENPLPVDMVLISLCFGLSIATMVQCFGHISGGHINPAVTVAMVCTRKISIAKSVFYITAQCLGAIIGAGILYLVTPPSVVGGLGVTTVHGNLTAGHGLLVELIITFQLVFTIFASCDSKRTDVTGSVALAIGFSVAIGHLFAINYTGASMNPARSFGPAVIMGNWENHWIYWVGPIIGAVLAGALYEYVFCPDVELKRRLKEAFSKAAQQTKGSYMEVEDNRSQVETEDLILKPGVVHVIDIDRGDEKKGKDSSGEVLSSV

CCCCNc1cc(C(=O)O)cc(S(N)(=O)=O)c1Oc1ccccc1 [bumetanide]
block of swelling rate in AQP4-expressing oocytes (AQP4; extracellular application): Dose-dependent block
block of swelling in AQP4-expressing oocytes (AQP4; internal injection into the oocyte (intracellular)): improved block at lower concentrations
cerebral edema and infarct size, statistical significance (p<0.06) [1]: does not meet criteria, but indicates promise
glial initial swelling (soma area) [2]: reduced
regulatory volume decrease (RVD) [2]: reduced
